Entries after “also recorded” stand apart in the source; their conditions may differ.
Legend:
[1] = In vitro cytotoxic activity (Calcein AM, 72 hours), BJ; conditions: human, BJ normal fibroblasts
[2] = target: CDK9/cyclin T (Homo sapiens, UniProt P50750); assay: CDK inhibition assay, CDK9/cyclin T
[3] = system: HAd4; assay: Plaque number reduction assay, HAd4 on A549; format: cell-based, Human adenovirus type 4 (HAdV-4) strain RI-6
[4] = system: human erythroleukaemia K562; assay: In vitro cytotoxic activity (Calcein AM, 72 hours), K562; conditions: K562, 72 h, read-out: Cytotoxicity IC50 K-562
[5] = system: promyelocytic leukemia HL 60; assay: In vitro cytotoxic activity (Calcein AM, 72 hours), HL 60; conditions: Homo sapiens, HL-60, 72 h, read-out: Cytotoxicity IC50 HL60
[6] = system: p53 protein in MCF-7 cells expressing wild-type p53; assay: Induction of p53 protein in MCF-7 cells (immunoblotting); format: cell-based, human
Protocol: (a) DO-1, DO-2 and 1801 monoclonal antibodies recognise the N-terminal region of p53 protein, monoclonal antibodies DO-11 and DO-12 recognise different epitopes in the core domain of p53 protein, monoclonal antibodies Bp53-10 and Pab421 recognise the C-terminal region of p53 protein. (b) Monoclonal antibody 118 recognises p21^WAF1.
For direct immunoblotting, total cellular protein lysates were prepared by harvesting cells in hot Laemmli electrophoresis sample buffer. Proteins were then separated by SDS-polyacrylamide gel electrophoresis (SDS-PAGE) on 10% gel and transferred onto a nitrocellulose membrane in Bio.Rad Mini Trans-Blott Electrophoretic Transfer Cell for 2 hrs at 4° C. applying 150 mA in transfer buffer ([…], 190 mM glycine and 20% methanol). Prestained molecular weight markers (Bio-Rad) were run in parallel. The blotted membranes were blocked in 5% milk and 0.1% Tween 20 in PBS for 2 hrs and probed overnight with monoclonal antibodies. After washing 3 times in PBS plus 0.1% Tween 20, peroxidase conjugated rabbit anti-mouse immunoglobulin antiserum (Dako, Denmark) diluted 1:1000 was used as the secondary antibody. To visualise peroxidase activity, ECL reagents from […] were used according to the manufacturer instructions.
First, we determined appropriate concentration of 103 and 105 for our experiments. The MCF-7 (wt p53) cells were treated for 12 hrs with increasing concentrations of 105 ranging from 1 to 100 μM and analysed for p53 protein expression using monoclonal antibody DO-1 (FIG. 3A). […] As shown at FIG. 3C the level of protein expression induced by 5 μM 105 was not substantially different from expression induced by 50 μM concentration was selected for further experiments. Second, the periods of time 6, 12 and 24 hrs were chosen, since the level of protein expression reached a steady state. We analysed the expression of p53 protein in MCF-7 (wt p53), BT549 (mut p53) and BT474 (mut p53) breast cancer cell lines, in HT29 (mut p53) colorectal cancer cell line and in ostaosarcoma cell line HOS (mut p53). […] No induction of p53 was observed following exposure of BT549 and HOS cell lines, expressing mutant p53, to 5 μM 105 for 6, 12 and 24 hrs. No correlation was observed between the sensitivity of cell lines to 105 and the presence of wild-type or mutant p53.

[7] = system: human T-lymphoblastoid leukaemic cell line CEM; assay: In vitro cytotoxic activity (Calcein AM, 72 hours), CEM; conditions: read-out: Cytotoxicity IC50 CEM
[8] = system: HCMV; assay: Plaque number reduction assay, HCMV on HFFF; format: cell-based, Human cytomegalovirus strain Toledo
[9] = system: A549 lung adenocarcinoma xenograft; assay: In vivo anticancer activity, human xenograft model of A549 lung adenocarcinoma
[10] = system: HIV promoter integrated into cellular DNA (H1299-HIV cells); assay: β-galactosidase expression from pHIV-lacZ incorporated to cellular genome (H1299-HIV); conditions: HIV promoter integrated into cellular DNA (FIG. 11)
[11] = system: HAd4; assay: HAd4 yield reduction assay (multiple step growth curve) in A549 cells; conditions: culture medium; combination: until 72 hours after infection
[12] = system: VV; format: cell-based, Vaccinia virus strain WR; conditions: Vaccinia virus on HFFF
[13] = system: HSV-1-deltaTK; assay: Plaque number reduction assay, HSV-1-deltaTK on HFFF; format: cell-based; conditions: HSV-1 thymidine kinase (TK) deletion mutant on HFFF
[14] = system: CMV promoter (plasmid pCMV-lacZ); assay: β-galactosidase expression from transiently transfected pCMV-lacZ in MCF-7 and T47D; conditions: transiently transfected MCF-7 and T47D (FIG. 9)
[15] = system: human malignant melanoma G 361; assay: In vitro cytotoxic activity (Calcein AM, 72 hours), G 361; conditions: G-361, 72 h, read-out: Cytotoxicity IC50 G361
[16] = system: p53-responsive reporter pRGCΔfoslacZ in murine fibroblasts T22lacZ; assay: p53-dependent transcriptional activity, β-galactosidase reporter in T22lacZ cells; format: cell-based; conditions: 5 μM
[17] = system: HSV-2; assay: Plaque number reduction assay, HSV-2 on HFFF; format: cell-based, HSV-2 strain HG52
[18] = system: breast carcinoma MCF7; assay: In vitro cytotoxic activity (Calcein AM, 72 hours), MCF7; conditions: Homo sapiens, MCF7, 72 h, read-out: Cytotoxicity IC50 MCF7

CDK9/cyclin T, sequence (P50750 whole entry, species assumed): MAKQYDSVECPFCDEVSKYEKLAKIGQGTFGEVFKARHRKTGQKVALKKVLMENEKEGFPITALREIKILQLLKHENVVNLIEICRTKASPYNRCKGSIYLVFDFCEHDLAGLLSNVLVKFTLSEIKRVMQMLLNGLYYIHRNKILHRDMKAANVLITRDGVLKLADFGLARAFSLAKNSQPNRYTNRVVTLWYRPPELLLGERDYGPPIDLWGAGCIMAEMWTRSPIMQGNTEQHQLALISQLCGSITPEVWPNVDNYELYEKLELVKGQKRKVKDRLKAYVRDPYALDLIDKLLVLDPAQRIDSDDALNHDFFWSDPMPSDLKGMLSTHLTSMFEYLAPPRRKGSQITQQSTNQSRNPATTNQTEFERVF
CDK9/cyclin T, sequence (O60563 whole entry partner, species assumed): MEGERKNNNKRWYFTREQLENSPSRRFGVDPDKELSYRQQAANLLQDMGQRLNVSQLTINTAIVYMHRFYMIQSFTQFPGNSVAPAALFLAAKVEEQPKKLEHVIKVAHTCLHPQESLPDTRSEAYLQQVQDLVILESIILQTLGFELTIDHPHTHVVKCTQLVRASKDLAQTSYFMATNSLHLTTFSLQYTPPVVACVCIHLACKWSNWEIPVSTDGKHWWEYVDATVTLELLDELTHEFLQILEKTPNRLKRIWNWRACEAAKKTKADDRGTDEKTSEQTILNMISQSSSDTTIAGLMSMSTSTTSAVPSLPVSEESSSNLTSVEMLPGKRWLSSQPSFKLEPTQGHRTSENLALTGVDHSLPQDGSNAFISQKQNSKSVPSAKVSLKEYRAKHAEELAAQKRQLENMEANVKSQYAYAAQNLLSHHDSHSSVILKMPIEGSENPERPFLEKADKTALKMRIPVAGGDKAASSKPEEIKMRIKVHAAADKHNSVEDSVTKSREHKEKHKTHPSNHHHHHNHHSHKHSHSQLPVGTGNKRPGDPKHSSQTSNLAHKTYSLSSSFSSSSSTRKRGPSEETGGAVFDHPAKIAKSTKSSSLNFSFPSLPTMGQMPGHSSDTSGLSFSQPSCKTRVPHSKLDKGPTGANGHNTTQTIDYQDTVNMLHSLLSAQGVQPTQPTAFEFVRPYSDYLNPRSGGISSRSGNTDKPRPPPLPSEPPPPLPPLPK

For `CCC(CO)Nc1nc(NCc2ccccc2N)c2ncn(C(C)C)c2n1` (centres unmarked) [Compound 105, 2-({6-[(2-aminobenzyl)amino]-9-isopropyl-9H-purin-2-yl}amino)butan-1-ol], the IC50 at 72 h [1] was greater than 167 µM, the IC50 [2] was 5 nM and the “inhibition of virus replication (in words)” value (“inhibition” for short) [3] was “inhibited HAd4 replication; also recorded: profound effect”. The IC50 [4] was 12.8 µM, the IC50 [5] was 6.7 µM and the “tumor suppressor p53 level” value ([6]; MCF7 cells treated for 24 h, immunoblot (FIG. 2)) was “Induction”. For the same molecule, the “concentration shown to affect the level of p53 protein” value ([6]; MCF-7 (wt p53), 12 hrs, antibody DO-1) was 2 to 5 µM, the “accumulation of wild-type p53” value ([6]; MCF-7, 5 μM, 6, 12 and 24 hrs) was “significant accumulation” and the “time at which induction of p53 protein was apparent” value ([6]; MCF-7 cells) was 4 h. For the same molecule, the IC50 [7] was 4.5 µM, the “inhibition” value [8] was “equally sensitive” and the tolerability in animals ([9]; CD-1 SCID mice, orally twice daily 150 mg/kg, Days 1-3 and 7-9) was “good tolerability”. The tumor volume analysis ([9]; CD-1 SCID mice, orally twice daily 150 mg/kg, P=0.0409 versus vehicle) was “significantly smaller tumors”, the mean survival time ([9]; as printed in the A549 tumor volume paragraph) was 15.4 days and the “increase of reporter readout” value [10] was 4 times. For the same molecule, the “appearance of extracellular virus” value [11] was “considerably delayed”, the “inhibition” value [12] was “inhibited equally well” and the “inhibition” value [13] was “remained sensitive”. For the same molecule, the “expression from CMV promoter (β-galactosidase activity)” value [14] was “inhibited expression”, the IC50 [15] was 8 µM and the “blue-coloured cells (β-galactosidase activity, X-gal substrate)” value [16] was “about 25%”. For the same molecule, the “inhibition” value [17] was “inhibited replication” and the IC50 [18] was 3.4 µM.
